Laboratory results taken from patent US20180333382A1, “PHARMACEUTICAL COMPOSITIONS COMPRISING DGLA AND USE OF SAME” (DS Biopharma Limited, priority 2017, published 2018).
Several values for one entry are separate records, joined by “and”; a condition that tells them apart may be missing. Equal entries are not always repeated.

Key:
eosinophil = experiment: Phase II study: eosinophil concentrations by ethnicity and responder status; assay type: in vivo, human
Method: Laboratory tests were performed at screening, Day 0, Week 4 and Week 8. If Week 8 results indicated a clinically significant change from baseline, laboratory tests were also performed at Week 10. The tests included urinalysis, hematology with differential and coagulation testing, a standard chemistry panel (chemistry includes liver function tests and cholesterol), coagulation, serum pregnancy test (screening and week 8 early termination visits) for women of childbearing potential (WOCBP). At baseline (Day 0), week 2, week 4 and week 10 visits, a urine pregnancy test was performed for women of childbearing potential (conducted at the investigator site).
Eosinophils are a type of white blood cell that play an important role in the body's response to allergic reactions, asthma, and infection with parasites. Eosinophils usually account for less than 7% of the circulating white blood cells (100 to 500 eosinophils per microliter of blood). These cells have a role in the protective immunity against certain parasites but also contribute to the inflammation that occurs in allergic disorders.
FIG. 30A-B. In particular, 56% of DS107-treated African America patients were classified as Responders, versus only 7% of Caucasian patients. […]

[1] = system: spontaneous hypertensive rats; experiment: Arterial pressure and phenylephrine-induced hypertensive response after seven days of gavage (DGLA, aspirin, DGLA + aspirin); assay type: in vivo, rat; settings: for Mean arterial pressure at baseline, Average SAP / Mean arterial pressure with an intravenous dose of Phenylephrine 20 μg/kg, Average SAP / Mean arterial pressure at baseline, individual rats / Mean arterial pressure with an intravenous dose of Phenylephrine 20 μg/kg, individual rats: seven consecutive days of gavage; for Mean arterial pressure at baseline, individual rats / Mean arterial pressure with an intravenous dose of Phenylephrine 20 μg/kg, individual rats: Rat #1-#5; for Arterial pressure, Diastol / Arterial pressure, Systol / Mean systemic arterial pressure: seven days of gavage, before phenylephrine
Method: An in vivo investigation of anti-hypertension efficacy following co-administration of DGLA and aspirin in spontaneous hypertensive rats was conducted. This experiment investigated the efficacy of DGLA when co-administered chronically with aspirin to reduce the hypertensive response induced acutely by phenylephrine in spontaneous hypertensive rats. Spontaneously hypertensive adult male rats (250-300 g), bred by Charles River Laboratories, were used for this assay. The animals were identified upon arrival as per CCPA guidelines. The animals were pair-housed by group (low dose+aspirin, high dose+aspirin or aspirin alone) for the duration of the oral gavage prior to surgery. All animal care and vivarium maintenance was recorded, with documents kept at the test facility.
The concentrations of DGLA to be tested (50 and 500 mg/kg) as well as the concentration of aspirin (10 mg/kg) were selected by the Sponsor based on information available at the time of design of this study. They were selected to cover a range of concentrations useful for the identification of the mechanism of action of the test article.
All solution preparations were documented on a Solution Contents Form, defining labelling information and all relevant information on reagents: batch number, storage conditions, contents, and preparation/expiry dates.
The test article was formulated using olive oil as the vehicle. This stock solution was then administered by oral gavage once per day for seven consecutive days. A low and a high dose (50 mg/kg and 500 mg/kg) were tested.
A 5 mg/ml stock solution of aspirin was prepared by dissolving the appropriate amount of aspirin in 100% DMSO which was then diluted in water. The concentration of DMSO was less than 1%. The appropriate volume was administered by oral gavage to each animal once per day for seven consecutive days. The stock solution was stored at room temperature and was considered stable for the duration of the gavage.
The appropriate volume was administered to each animal by an intravenous injection at the end of the experiment on the surgery day. The stock solution was stored at 4° C. and was considered stable for the duration of the experiment.
A stock solution of phenylephrine of 1 mg/ml were prepared in PBS (pH=7.4±0.05). The stock solution was stored at 4° C. The expiration date was set at 14 days after preparation.
Male spontaneous hypertensive rats weighing approximately 300 g arrived at the facility at least two days before beginning the oral gavage. Animals were assigned to one of three groups (low dose+aspirin, high dose+aspirin, and aspirin), and were pair-housed during the acclimation period. Each group (n=4) received the appropriate compound by oral gavage using a 16 G feeding needle. The stock solution was administered once per day for seven consecutive days. On the seventh day of administration, the animals underwent surgery and hypertensive monitoring.
Rats were anesthetized with a 2.5-3.0% isoflurane-O2 mixture in an induction box. When the animals were removed from the induction box, they were connected onto a nose cone to maintain anesthesia during the tracheotomy. The animals were tracheotomised with an endotracheal tube (7 cm length from connector to the tip made with a PE205 tube from BD and a 16 G needle) to facilitate spontaneous breathing, stabilize hemodynamics, and to keep the rat under anesthesia with an isoflurane-O2 mixture. Two catheters were inserted: one in the right femoral artery for systemic arterial pressure (SAP) measurement, and one in the right femoral vein for delivery of the hypertensor and positive control. ECG signals were acquired with ECG contacts placed in a Lead-1 configuration on the anaesthetized animal, and a pulse oxymeter was attached to the animal's hind paw to enable continuous monitoring of the general condition of the rat during the surgical procedure.

Q: Which results are given for `CCCCC/C=C\C/C=C\C/C=C\CCCCCCC(=O)O` [DS107G, Dihomo gamma linolenic acid]?
A: eosinophil concentrations (eosinophil; African American vs Caucasian patients, each time point measured): statistically significant reductions; eosinophil concentration (eosinophil; treated Responders vs Non-responders, all time points): statistically significant decrease; Mean arterial pressure at baseline, Average SAP ([1]; DGLA 50 mg/kg): 74.5 mm of Hg; Mean arterial pressure with an intravenous dose of Phenylephrine 20 μg/kg, Average SAP ([1]; DGLA 50 mg/kg): 115.7 mm of Hg; Mean arterial pressure at baseline, individual rats ([1]; DGLA 50 mg/kg): 51.77 mm of Hg and 87.81 mm of Hg and 62.11 mm of Hg and 86.01 mm of Hg and 84.93 mm of Hg; Mean arterial pressure with an intravenous dose of Phenylephrine 20 μg/kg, individual rats ([1]; DGLA 50 mg/kg): 91.82 mm of Hg and 137.84 mm of Hg and 105.44 mm of Hg and 132.68 mm of Hg and 110.72 mm of Hg; Arterial pressure, Diastol ([1]; DGLA 50 mg/kg): 75 mmHg; Arterial pressure, Systol ([1]; DGLA 50 mg/kg): 120 mmHg; Mean systemic arterial pressure ([1]; DGLA 50 mg/kg): 90 mmHg; Mean arterial pressure at baseline, Average SAP ([1]; DGLA 500 mg/kg): 82.2 mm of Hg; Mean arterial pressure with an intravenous dose of Phenylephrine 20 μg/kg, Average SAP ([1]; DGLA 500 mg/kg): 112.1 mm of Hg; Mean arterial pressure at baseline, individual rats ([1]; DGLA 500 mg/kg): 64.81 mm of Hg and 91.55 mm of Hg and 94.41 mm of Hg and 66.56 mm of Hg and 93.64 mm of Hg; Mean arterial pressure with an intravenous dose of Phenylephrine 20 μg/kg, individual rats ([1]; DGLA 500 mg/kg): 105.21 mm of Hg and 119.33 mm of Hg and 118.12 mm of Hg and 97.17 mm of Hg and 120.82 mm of Hg; Arterial pressure, Diastol ([1]; DGLA 500 mg/kg): 80 mmHg; Arterial pressure, Systol ([1]; DGLA 500 mg/kg): 135 mmHg; Mean systemic arterial pressure ([1]; DGLA 500 mg/kg): 98 mmHg; effect on arterial pressure in spontaneously hypertensive rats ([1]; DGLA 50 or 500 mg/kg alone, effect eliminated by aspirin): successfully decreases the arterial pressure; lowering of the mean systemic arterial blood pressure ([1]; spontaneous hypertensive rats treated with DGLA alone, observed previously): up to 25%
